# Values quoted from earlier work in patent US20140243428A1, “SELF HEALING HYDROGELS” (The Regents of the University of California, priority 2013, published 2014).
compound,measurement,value
NCCCCCC(=O)O [6-aminocaproic acid],pKa,4.4
